Measurements as given in PubChem BioAssay (NCI).
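A five-concentration, 48-hour dose response in 96-well plates underlies each endpoint, interpolated linearly between surrounding concentrations. The concentration for 50% growth inhibition is given as GI50. At the TGI there is no net growth.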

How the values were obtained:
Assay in all cases: NCI anticancer screen, dose series, 48 h
[1] = tested on: NCI-H522 lung
[2] = tested on: SN12C renal
[3] = tested on: T-47D breast
[4] = tested on: ACHN renal
[5] = tested on: RXF 393 renal
[6] = tested on: A549 NSCLC
[7] = tested on: SK-MEL-5 melanoma
[8] = tested on: UACC-62 melanoma

| Structure (SMILES) | GI50 [1] | TGI [1] | GI50 [2] | TGI [2] | GI50 [3] | TGI [3] | GI50 [4] | TGI [4] | GI50 [5] | TGI [5] | GI50 [6] | TGI [6] | GI50 [7] | TGI [7] | GI50 [8] | TGI [8] |
| --- | --- | --- | --- | --- | --- | --- | --- | --- | --- | --- | --- | --- | --- | --- | --- | --- |
| CCCCCN(CCCCC)CCC[C@@H](C)[C@H]1CC[C@H]2[C@@H]3[C@H](OCCCN)C[C@@H]4C[C@H](OCCCN)CC[C@]4(C)[C@H]3C[C@H](OCCCN)[C@]12C | 2.98 µM | 12.3 µM | 4.33 µM | 18.8 µM | 10 µM | 30.3 µM | 8.8 µM | 35 µM | 11.9 µM | 32.7 µM | 5 µM | 21.9 µM | 3.85 µM | 16.2 µM | 1.56 µM | 6.41 µM |
| Cc1ccc(/C(=N/NS(=O)(=O)c2cc(C)c(Cl)cc2Cl)Sc2cc(Cl)c(C)cc2S(N)(=O)=O)cc1 | > 100 µM | > 100 µM | > 100 µM | > 100 µM | > 100 µM | > 100 µM | 86.4 µM | > 100 µM | 90.9 µM | > 100 µM | > 100 µM | > 100 µM | > 100 µM | > 100 µM | > 100 µM | > 100 µM |
| NC(=O)c1cn(C2CC(O)C(CO)O2)c2ncnc(N)c12 (stereo not drawn) | 4.27 µM | 16.2 µM | 1.56 µM | 31.1 µM | 0.0549 µM | 1.82 µM | 3.62 µM | > 58.1 µM | 2.08 µM | 13.9 µM | 5.2 µM | 41.1 µM | 5.42 µM | 31.9 µM | 2.39 µM | 23 µM |
| O=C(Nc1ccc(Cl)c(C(F)(F)F)c1)Nc1ccc(-c2cccnc2)cc1N1CCC(CO)CC1 | 1.73 µM | 3.43 µM | 3.46 µM | 19 µM | 2.09 µM | 7.76 µM | 3 µM | > 100 µM | 1.74 µM | 3.34 µM | 3.45 µM | 23.8 µM | 1.63 µM | 3.12 µM | 2.18 µM | 6.75 µM |
| Cc1nnn(C)c1-c1cnc2c3ccc(C(C)(C)O)cc3n([C@H](c3ccccc3)C3CCOCC3)c2c1 | < 0.01 µM | 20.9 µM | 1.4 µM | > 74.9 µM | 0.0104 µM | > 100 µM | 0.0243 µM | 14.9 µM | 1.16 µM | 20.4 µM | 0.037 µM | 31.9 µM | < 0.01 µM | 10.7 µM | < 0.01 µM | 12.7 µM |
| O=Cc1ccc(-c2ccc(-c3nc4ccccc4s3)cc2)o1 | > 100 µM | > 100 µM | > 100 µM | > 100 µM | > 100 µM | > 100 µM | > 100 µM | > 100 µM | 62.7 µM | > 100 µM | > 100 µM | > 100 µM | 96.4 µM | > 100 µM | > 100 µM | > 100 µM |
| CC(C)(C)c1cc(C[P+](c2ccccc2)(c2ccccc2)c2ccccc2)cc(C(C)(C)C)c1O | 0.33 µM | 1.91 µM | 0.404 µM | 2.31 µM | 0.2 µM | 1.01 µM | 2.63 µM | 10.8 µM | 1 µM | 4.67 µM | 0.392 µM | 11 µM | 0.244 µM | 0.716 µM | 0.365 µM | 1.66 µM |
| N#Cc1c(N)nc2c(c1-c1ccc(Cl)cc1)COc1ccc(F)cc1-2 | 23 µM | 59.5 µM | 19.1 µM | 47.7 µM | 43.7 µM | > 100 µM | 15.9 µM | 52.1 µM | 20.3 µM | > 100 µM | 43.5 µM | > 100 µM | 20.6 µM | 37.6 µM | 15.1 µM | 34.2 µM |
| Nc1nc(Sc2ccc([N+](=O)[O-])c3nonc23)c2ncn(C3OC(CO)C(O)C3O)c2n1 (stereo not drawn) | 0.64 µM | 14.2 µM | 1.48 µM | 21.8 µM | 1.07 µM | > 49.5 µM | 0.609 µM | 23.8 µM | 10.4 µM | > 62.5 µM | 4.27 µM | > 100 µM | 2.4 µM | > 22.4 µM | 0.478 µM | 3.59 µM |
| COc1cccc(S(=O)(=O)NC2=NCCN2C(=S)SN2CCn3c2nsc3=S)c1 | 20.1 µM | 40.9 µM | 36.1 µM | > 100 µM | 23.3 µM | 51 µM | 15.6 µM | 29.8 µM | 16.8 µM | 46.9 µM | > 100 µM | > 100 µM | 37.9 µM | > 100 µM | 28.6 µM | > 100 µM |
| CN1CCN(C)C1c1ccc(C2N(C)CCN2C)cc1 | > 100 µM | > 100 µM | 31.4 µM | > 100 µM | 20.4 µM | > 100 µM | 80 µM | > 100 µM | > 100 µM | > 100 µM | > 100 µM | > 100 µM | 24.4 µM | 89.7 µM | 56.9 µM | > 100 µM |
| CCNCC(=O)Nc1ccc2c(c1)C(=O)c1ccc(NC(=O)CNCC)cc1C2=O | – | 4.61 µM | – | 6.45 µM | – | 17.1 µM | – | 9.15 µM | – | 13.3 µM | – | 14.6 µM | – | 59.3 µM | – | 17.8 µM |
| COC(=O)CCc1n(Cc2ccc3ccccc3c2)c2ccccc2[n+]1Cc1ccc2ccccc2c1 | 0.44 µM | 1.77 µM | 0.833 µM | 2.19 µM | 0.222 µM | 2.65 µM | 3.71 µM | 13.1 µM | 0.874 µM | 2.23 µM | 2.92 µM | 11.9 µM | 0.415 µM | 1.56 µM | 0.361 µM | 1.59 µM |
| CCCN(CCC)c1ccc(/C=N/NC(=O)c2cccnc2)c(C)c1 | 12.6 µM | 30 µM | 17.5 µM | 41.2 µM | 6.35 µM | 27.6 µM | 24.5 µM | > 100 µM | 15.1 µM | 30.7 µM | 15.7 µM | 36.8 µM | 12.8 µM | 25.4 µM | 11.4 µM | 24.6 µM |
| COc1ccc2c(n1)Sc1nc3ccccc3nc1N2 | – | > 100 µM | – | 71.6 µM | – | > 100 µM | – | > 100 µM | – | > 100 µM | – | > 100 µM | – | > 100 µM | – | 43.4 µM |
| CC(C)[C@@]12C[C@@H](OC(=O)C3CO3)[C@@](C)(O1)[C@@H]1CC[C@@H](C)[C@H]1[C@@H]2OC(=O)/C=C/c1ccccc1 (stereo partly drawn) | 17.4 µM | 37.3 µM | 11.9 µM | 32.5 µM | 18.8 µM | > 100 µM | 2.34 µM | 7.79 µM | 7.86 µM | 22.4 µM | 20.4 µM | 49.5 µM | 16.5 µM | 30.2 µM | 14.9 µM | 34.4 µM |
| Nc1nc(-c2cccnc2)cc(-c2cc(-c3cccnc3)nc(N)n2)n1 | – | > 100 µM | – | > 100 µM | – | > 100 µM | – | > 100 µM | – | > 100 µM | – | > 100 µM | – | > 100 µM | – | > 100 µM |
| COc1cc2c3c(n(CCCN=[N+]=[N-])c(=O)c2cc1OC)-c1ccc([N+](=O)[O-])cc1C3=O | 16.8 µM | > 100 µM | > 100 µM | > 100 µM | 50.1 µM | > 100 µM | > 100 µM | > 100 µM | > 100 µM | > 100 µM | > 100 µM | > 100 µM | > 100 µM | > 100 µM | 68.7 µM | > 100 µM |
| COc1cc2c3c(n(CCCN=[N+]=[N-])c(=O)c2cc1OC)-c1ccc(F)cc1C3=O | 4.89 µM | > 100 µM | 8.26 µM | > 100 µM | 3.92 µM | > 100 µM | 3.8 µM | > 100 µM | > 100 µM | > 100 µM | 48 µM | > 100 µM | 4.25 µM | 17.9 µM | 5.27 µM | > 100 µM |
| COc1ccc(Nc2ncc(I)c(NCCCNC(=O)C3CCC3)n2)cc1 | 20.9 µM | > 100 µM | 1.46 µM | > 100 µM | 28.4 µM | 79 µM | 3.65 µM | > 100 µM | 1.27 µM | 6.54 µM | 4.6 µM | 24.6 µM | 10.1 µM | 28.7 µM | 17.2 µM | 43.2 µM |
| O=c1[nH]c(-c2ccc(Cl)c(Cl)c2)cn1-c1ccc(Cl)cc1 | 44.3 µM | > 100 µM | 26.7 µM | > 100 µM | 25.5 µM | 84.5 µM | 32.5 µM | > 100 µM | 32.7 µM | 56.4 µM | 21.3 µM | 48 µM | 42.2 µM | > 100 µM | 26.2 µM | 78.3 µM |
| Oc1ccc(N=Nc2ccc(Br)cc2)c(O)c1 | 1.74 µM | 6.53 µM | 6.54 µM | 50 µM | 2.93 µM | 42.3 µM | 5.44 µM | 37.5 µM | 1.19 µM | 9.56 µM | 3.19 µM | 17.9 µM | 3.85 µM | 21.6 µM | 3.01 µM | 20.8 µM |
